Test results as given in patent publication US10428048B2, “Androgen receptor antagonists” (CITY OF HOPE, priority 2015, dated 2019).
Entries after “also recorded” stand apart in the source; their conditions may differ. Where a name gives a salt, the structure may show the parent alone. Read-outs that look alike come from different tables or passages of the source.

Key:
[1] = Further PK studies, single dose, DMSO/PBS or BCD formulation; settings: blood at 0.5, 2 and 24-hrs; for Drug level in blood after administration, BCD formulation: 25 mg/kg single dose; for Drug level in blood after administration, DMSO/PBS formulation: 1 mg/kg single dose
Description: Treatment: 1-2 mice with single dose and blood at 0.5, 2 and 24-hrs.

[2] = system: 22Rv1 cells; assay: 22Rv1 cell growth in culture; assay type: cell-based, human; settings: androgen-independent, AR splice variant expressing 22Rv1 cells; tosylate
Description: (§1) For growth curves, cells were transferred to charcoal-stripped media three days before they were split and plated at a density of approximately 20,000 cells/well in 48 well plates, in quadruplicate. The assay was repeated three times. The following day, medium with the indicated drugs was added to the cells. Proliferation was determined by measuring the DNA content of the cells in each well. Each day, the cells were fixed in 100% cold methanol, followed by staining for 5 min at RT with 0.2 ng/mL 4′,6-diamidino-2-phenylindole (DAPI) in PBS. The cells were washed with PBS, then read on a fluorescence plate reader (FPR) using 365/439 excitation/emission wavelengths. A student's T test was used to determine significant differences among populations.

[3] = Toxicity studies, MTD determination; settings: in vivo
Description: In DMSO/PBS formulation, with MTD single dose: IV: ˜1 mg/kg; PO (oral): not determined due to poor absorption; and IP: ˜5 mg/kg. With MTD daily dosing: IP: ˜1 mg/kg. In Beta cyclodextrin formulation: MTD single dose: IV: not determined; PO (oral); ˜200 mg/kg; IP: >10 mg/kg. In MTD daily dosing: IP: at least 5 mg/kg; PO: at least 100 mg/kg.

[4] = system: LNCaP cells; assay: LNCaP prostate cancer cell growth (DAPI staining); assay type: cell-based, human; settings: for Inhibition of LNCaP cell growth in culture: AR-dependent LNCaP cells; for inhibition at 0.3 µM: Homo sapiens, LNCaP, read-out: LNCaP growth inhibition at 300 nM
Description: as §1

[5] = Solubility in solvents and formulations
[6] = system: enzalutamide (enz)-resistant LNCaP cells; assay: Enzalutamide-resistant LNCaP cell growth in culture; assay type: cell-based, human
[7] = system: other nuclear receptors; assay: Specificity for AR versus other nuclear receptors; assay type: cell-based; settings: P24 0.1, 0.3, 1 μM; P7 0.3, 1, 3 μM
[8] = P24 microsomal analysis, mouse microsomes; assay type: in vitro ADME
Description: (§2) FIG. 16. P24 microsomal analysis.
(§3) As depicted in FIG. 16, the concentration of compound. P24 solution tested with incubation with microsomes.

[9] = P24 microsomal analysis, human microsomes; assay type: in vitro ADME
Description: as §2, §3

[10] = system: AR target genes; assay: Inhibition of AR activity in vivo (qRT-PCR of prostate tissue); set-up: species or system Mice; settings: 5 mg/kg via osmotic pump for 4 weeks
Description: Total RNA was isolated from homogenized prostate or tumor tissue using an RNAeasy kit (Qiagen). RNA was reverse-transcribed (MMLV-RT; Invitrogen), and the expression of androgen-regulated genes was assessed by qPCR using a StepOne Real Time PCR System (Applied Biosystems), using SYBR green (Invitrogen) as the detecting dye and Rox (Invitrogen) as the reference dye. Differences between treated (x) and no DHT control (y) samples were normalized to RPL19 transcript levels (i.e., androgen-unresponsive) and determined with the following calculation: (2[Ctxgene1−Ctygene1])/(2[CtxRPL19−CtyRPL19]).

[11] = ip, Beta cyclodextrin formulation, IP, daily dosing, read-out: MTD daily dosing IP
[12] = ip, Beta cyclodextrin formulation, IP, single dose, read-out: MTD single dose IP
[13] = ip, DMSO/PBS formulation, IP, daily dosing, read-out: MTD daily dosing IP
[14] = ip, DMSO/PBS formulation, IP, single dose, read-out: MTD single dose IP
[15] = iv, DMSO/PBS formulation, IV, single dose, read-out: MTD single dose IV
[16] = po, Beta cyclodextrin formulation, PO, daily dosing, read-out: MTD daily dosing PO
[17] = po, Beta cyclodextrin formulation, PO, single dose, read-out: MTD single dose PO (oral)
[18] = 100 ng/ml P24, absence of NADPH
[19] = 100 ng/ml P24, presence of NADPH

Row | Structure (SMILES) | Drug level in blood after administration, BCD formulation [1] | Drug level in blood after administration, DMSO/PBS formulation [1] | Inhibition of 22Rv1 cell growth in culture [2] | MTD [3, 11] | MTD [3, 12] | MTD [3, 13] | MTD [3, 14] | MTD [3, 15] | MTD [3, 16] | MTD [3, 17] | Inhibition of LNCaP cell growth in culture ([4]; tosylate) | inhibition at 0.3 µM [4] | Inhibition of growth of enzalutamide-resistant LNCaP cells [6] | Activity against other nuclear receptors [7] | further results
1 | Cc1cc(/C=C/c2ccc3cc(N(C)C)ccc3[n+]2C)c(C)[nH]1.Cc1ccc(S(=O)(=O)[O-])cc1 [P7, (E)-6-Dimethylamino-2-(2-(2,5-dimethyl-1H-pyrrol-3-yl)ethenyl)-1-methylquinolinium tosylate] | more continuous peak | almost no drug | inhibit the growth; also recorded: inhibited | ≥ 5 mg/kg | > 10 mg/kg | ~1 mg/kg | ~5 mg/kg | ~1 mg/kg | ≥ 100 mg/kg | ~200 mg/kg | inhibit the growth; also recorded: inhibited | 100% | inhibit the growth | little activity | solubility ([5]; DMSO, organic solvent or mixture): ~10000 µg/mL; solubility ([5]; acetonitrile, organic solvent or mixture): < 5000 µg/mL; solubility ([5]; beta cyclodextrin, aqueous with cosolvent or surfactant or cyclodextrin): ~5000 µg/mL; solubility ([5]; buffer B (aqueous), aqueous buffer): < 5000 µg/mL; solubility ([5]; ethanol, organic solvent or mixture): ~5000 µg/mL; solubility ([5]; gamma cyclodextrin, aqueous with cosolvent or surfactant or cyclodextrin): ~5000 µg/mL
2 | Cc1cccnc1-n1c(C)cc(/C=C/c2ccc3cc(N(C)C)ccc3[n+]2C)c1C [P24, (E)-6-Dimethylamino-2-(2-(2,5-dimethyl-1-(3-methylpyridin-2-yl)-1H-pyrrol-3-yl)ethenyl)-1-methylquinolinium tosylate] | significant spike | almost no drug | inhibit the growth; also recorded: inhibited | ≥ 5 mg/kg | > 10 mg/kg | ~1 mg/kg | ~5 mg/kg | ~1 mg/kg | ≥ 100 mg/kg | ~200 mg/kg | inhibit the growth; also recorded: inhibited | 100% | inhibit the growth | little activity | Breakdown in microsomes without NADPH (chemical stability) [8, 18]: lack of breakdown; Metabolism in microsomes, NADPH dependence [8, 19]: NADPH dependent; Breakdown in microsomes without NADPH (chemical stability) [9, 18]: lack of breakdown; Metabolism in microsomes, NADPH dependence [9, 19]: NADPH dependent; Inhibition of AR target genes in prostate tissue (qRT-PCR) [10]: inhibition of AR target genes
3 | CNC(=O)c1ccc(N2C(=S)N(c3ccc(C#N)c(C(F)(F)F)c3)C(=O)C2(C)C)cc1F [enzalutamide, reference compound] | – | – | – | – | – | – | – | – | – | – | – | – | – | – | Inhibition of LNCaP cell growth in culture [4]: inhibited
